Test results taken from patent publication US20100087351A1, “Perfumes for Linear Citrus Release in Rinse-Off Systems” (Quest International Services B.V., priority 2007, published 2010).

Test: Odor detection threshold (ODT)
Conditions: for ODT: Table 9
Excerpt: Within these defined water-release groups, odorants are then further described based on their experimentally determined odor detection thresholds (ODT) to further characterize the odor impact or olfactive intensity of a citrus and other olfactive types within the herein-described released group of odorants.
Upon their release in headspace, odorants are detected based on their odor detection threshold values. Odor detection thresholds are defined as the lowest concentration of odorants in a selected medium (air or water) to be detected. By including odor values of odorants in the model, one can further improve on the values for predicted performance of once odorants are released from the partition into the air.
Various databases for experimental odor detection threshold values in various partitions such as water and air are available. See Compilation of Odor and Taste Threshold Values Data, American Society for Testing and Materials, F. A. Fazzalari Editor; Booleans Aroma Chemical Information Service (BACIS)).

Compound | ODT [ppb] | odt (Table 11, in ppb) | odt (Table 13, in ppb) | odt (Table 15) [ppb] | odt (Table 17) [ppb] | odt (Table 13) [ppb] | odt (Table 11) [ppb]
C=CC(C)(O)CCC=C(C)CC (mixture of isomers) [ETHYL LINALOOL] | 120 | 120.00 | 120.00 | 120 | 440 |  | 
CC1=CCC(C=CC(C)C(C)O)C1(C)C (stereo in doubt) [EBANOL] | 54 | 54.00 | 54.00 |  |  |  | 
CCCCCCCCCCC=O [ALDEHYDE C11] |  |  |  |  |  | 7.7 | 
CCCCCCCCCCCC=O [ALDEHYDE C12 (DODECANAL), DODECANAL] |  |  |  | 17 | 17 |  | 
CCCCCCCC=O [ALDEHYDE C 8 (OCTANAL), OCTANAL] |  |  |  | 4.8 | 4.5 |  | 
CCCCCCCCCC=O [ALDEHYDE C 10 (DECANAL), DECANAL] |  |  |  | 8.7 | 6.7 |  | 
C=CCOC(=O)CCC1CCCCC1 [ALLYL CYCLOHXYL PROPIONATE, ALLYL CYCLOHEXYL PROPIONATE] | 81 | 81.00 | 61.00 |  |  |  | 
CCOC(=O)CC1(C)OCCO1 [APPLINAL] | 55 | 55.00 | 55.00 |  |  |  | 
CCCCC/C=C\CCC=O [CIS 4 DECENAL] |  |  |  | 3.1 | 3.1 |  | 
CC/C=C\CCOC(C)=O [CIS-3-HEXENYL ACETATE] | 170 | 170.00 | 170.00 | 170 | 170 |  | 
CC/C=C\CCOC(=O)c1ccccc1O [CIS-3-HEXENYL SALICYLATE] | 1.9 |  |  | 1.9 | 1.9 | 1.8 | 1.9
CC(C)=CCCC(C)=CC=O [CITRAL] |  | 12.00 | 12.00 |  |  |  | 
CC(C)=CCCC(C)CC=O (stereo not shown) [CITRONELLAL] |  | 33.00 | 33.00 | 33 | 33 |  | 
CC(C)=CCCC(C)CCO (stereo not shown) [CITRONELLOL] |  | 29.00 | 29.00 |  |  |  | 
CC(C)=CCCC(C)CC#N (stereo not shown) [CITRONELLYL NITRILE] | 71 | 71.00 | 71.00 | 71 | 71 |  | 
C=CC(C)CCCC(C)(C)O (stereo not shown) [DIHYDROMYRCENOL] | 810 | 819.00 | 810.00 | 810 | 810 |  | 
CCOC(=O)CC(C)=O [ETHYL ACETOACETATE] | 54 | 55.00 | 55.00 |  |  |  | 
CCOC(=O)C(C)CC (stereo not shown) [Ethyl 2-methylbutyrate] | 20 | 20.00 | 20.00 |  |  |  | 
CCC(C)C(=O)N(C)c1ccccc1 (stereo not shown) [GARDAMIDE] | 24 | 24.00 | 24.00 | 24 | 24 |  | 

Compound | ODT [ppb] | odt (Table 11, in ppb) | odt (Table 13, in ppb) | odt (Table 15) [ppb] | odt (Table 17) [ppb] | odt (Table 13) [ppb] | odt (Table 11) [ppb]
CCCCCCOC(C)=O [HEXYL ACETATE] | 950 | 550.00 | 950.00 |  |  |  | 
CCCCCCCCCCCC#N [LAURONITRILE] |  |  |  |  |  | 6.7 | 
CC1=CC(C)C(C=O)CC1 (stereo not shown) [LIGUSTRAL] |  | 110.00 | 110.00 | 110 | 110 |  | 
C=CC(C)(O)CCC=C(C)C (stereo not shown) [LINALOOL, linalool] |  |  |  | 20 | 20 |  | 
CCCCCCCCCC=CC=O [MANDARIN ALDEHYDE] |  |  |  |  |  | 1.5 | 
CC(CC=O)CCc1ccccc1 (stereo not shown) [MEFRANAL] | 17 | 17.00 | 17.00 | 17 | 17 |  | 
CC(C)=CCCC(C)C=O (stereo not shown) [MELONAL] |  |  |  | 1.5 | 1.5 |  | 
CCCCCC1C(=O)CCC1CC(=O)OC (stereo not shown) [METHYL DIHYDRO JASMONATE] | 0.23 |  |  |  |  | 0.23 | 0.23
CCCCCCC#CC(=O)OC [METHYL OCTINE CARBONATE] |  |  |  | 9.7 | 8.7 |  | 
CCC(CC)C(=O)N(C)c1cccc(C)c1 [PARADISAMIDE] |  |  |  | 0.6 | 0.6 | 0.8 | 
CC1CC(C)(c2ccccc2)CO1 (stereo not shown) [RHUBAFURAN] |  | 440.00 | 440.00 | 440 | 440 |  | 
CC(C)CC1CCCC(C)(O)C1 (stereo not shown) [ROSSITOL] | 440 | 440.00 | 440.00 | 440 | 120 |  | 
CC(=O)OC(C)c1ccccc1 (stereo not shown) [STRALLYL ACETATE, STYRALLYL ACETATE] |  |  |  | 110 | 110 |  | 
CCC(C)(O)CCCC(C)C (stereo not shown) [TETRAHYDROLINALOOL] | 380 | 380.00 | 380.00 |  |  |  | 
CC/C=C\CC/C=C/C=O [TRANS 2 CIS 6 NONADENAL, TRANS 2 CIS 6 NONADIENAL] |  |  |  | 0.2 | 0.2 |  | 
CC/C=C\CC/C=C/CO [TRANS 2 CIS 6 NONADENOL, TRANS 2 CIS 6 NONADIENOL] |  |  |  | 1.5 | 1.5 |  | 
CCCCCCCCCCC=CC#N [TRIDECEN 2 NITRILE] |  |  |  | 8.7 | 6.7 |  | 
CCC=C(C)C(O)CCCCC (stereo not shown) [UNDECAVERTOL, 4-Methyl-3-decen-5-ol] |  |  |  | 28 | 28 |  | 
C=C(C)[C@H]1CC=C(C)CC1 [d-LIMONINE, d-1-Methyl-4-isopropenyl-1-cyclohexene] | 430 | 430.00 | 430.00 | 430 | 430 |  | 
